The values that follow come from patent publication US20060135607A1, “Drug for improving prognosis for subarachnoid hemorrhage” (MOCHIDA PHARMACEUTICAL CO., LTD., priority 2003, published 2006).

This series has as its system patients with subarachnoid hemorrhage. Kind of series: Clinical study of postoperative EPA administration in patients with subarachnoid hemorrhage caused by ruptured aneurysm (GOS, survival, adverse events). Type of series: in vivo, human. The source says: Sixty four patients with subarachnoid hemorrhage caused by the ruptured aneurysm and subjected to surgical operations by the third day after onset (22 males and 42 females of the ages from 30's-80's) were divided into two groups (each having 32 individuals) designated as an EPA-administration group and an EPA-non-administration group. In addition, no difference was recognized in their background factors of both groups. Just after the operation, the EPA administration group received the administration of ethyl eicosapentaenoate (trade name: Epadel, manufactured by Mochida Pharmaceutical Co., Ltd.), 1,800 mg divided in three-doses a day for 14 days. Subsequently, the administration was continued during the hospital stay. At the stage of being impossible to dietary intake, tube-feedings were carried out. EPA suspended in hot water was administered through a stomach tube (Magen Sonde). At that time, for enhancing the absorption of EPA, 50 mg of Urso granule (manufactured by Mitsubishi Pharma Corporation) was administered through the stomach tube 15 minutes before EPA administration. At the stage of being possible to dietary intake, a commercial EPA preparation was administered orally. Furthermore, both groups were treated in combination with basic treatments on subarachnoid hemorrhage. However, some of the drugs were defined as prohibited substances. At the 30th day from the onset of subarachnoid hemorrhage, an evaluation was carried out by the Glasgow Outcome Scale (GOS).

Where [1] appears, read: 30th day from onset, 32 patients per group, 1,800 mg/day.
The mark [2] stands for this setting: 32 patients per group, 1,800 mg/day.

With `CC/C=C\C/C=C\C/C=C\C/C=C\C/C=C\CCCC(=O)OCC` [EPA, ethyl eicosapentaenoate], under setting [1], the “GOS: D (Death), number of patients” value is recorded as 1; the “GOS: MD (Moderate disability), number of patients” value worked out at 6; the “GOS: SD (Severe disability), number of patients” value was determined as 2; the “GOS: VS (Vegetative state), number of patients” value was found to be 2. Where the note is “30th day from onset, 32 patients per group, 1,800 mg/day in three doses, oral or stomach tube, Wilcoxon U test P=0.0128 vs non-administration group”, the “GOS: GR (Good recovery), number of patients” value was found to be 21. For the same compound, under setting [2], the “Death, number of patients” value is 1 and the “Survival, number of patients” value stood at 31. The Survival rate (32 patients per group, 1,800 mg/day, Fisher's exact test P=0.0265 vs non-administration group) stood at 97%. Besides, the “Adverse event considered as a result of the EPA administration” value (subarachnoid hemorrhage patients, 1,800 mg/day for 14 days and continued during hospital stay) is “not found”.
